Measurements: ChEMBL document CHEMBL6109094, “Anti-inflammatory agents design via the fragment hybrid strategy in the discovery of compound c1 for treating ALI and UC” (Eur J Med Chem, 2025)
The source made the active and inactive calls. The calls are words filed in the database; no cut-off is given here.

How the values were obtained:
RAW264.7 [1] = assay: Anti-inflammatory activity in mouse RAW264.7 cells assessed as inhibition of LPS-induced IL-6 mRNA level preincubated for 2 hrs followed by LPS addition measured after 6 hrs by RT-qPCR analysis; assay type: functional, cell-based; details: dose 1-4 µM, time 8.0 hrs
RAW264.7 [2] = assay: Anti-inflammatory activity in mouse RAW264.7 cells assessed as inhibition of LPS-induced TNF-alpha mRNA level preincubated for 2 hrs followed by LPS addition measured after 6 hrs by RT-qPCR analysis; assay type: functional, cell-based; details: dose 1-4 µM, time 8.0 hrs
[3] = target: T1, Interleukin-1 receptor-associated kinase 4 (Homo sapiens) (UniProt Q9NWZ3); assay: Inhibition of IRAK4 (unknown origin) at 10 uM relative to control
T1 sequence (whole entry): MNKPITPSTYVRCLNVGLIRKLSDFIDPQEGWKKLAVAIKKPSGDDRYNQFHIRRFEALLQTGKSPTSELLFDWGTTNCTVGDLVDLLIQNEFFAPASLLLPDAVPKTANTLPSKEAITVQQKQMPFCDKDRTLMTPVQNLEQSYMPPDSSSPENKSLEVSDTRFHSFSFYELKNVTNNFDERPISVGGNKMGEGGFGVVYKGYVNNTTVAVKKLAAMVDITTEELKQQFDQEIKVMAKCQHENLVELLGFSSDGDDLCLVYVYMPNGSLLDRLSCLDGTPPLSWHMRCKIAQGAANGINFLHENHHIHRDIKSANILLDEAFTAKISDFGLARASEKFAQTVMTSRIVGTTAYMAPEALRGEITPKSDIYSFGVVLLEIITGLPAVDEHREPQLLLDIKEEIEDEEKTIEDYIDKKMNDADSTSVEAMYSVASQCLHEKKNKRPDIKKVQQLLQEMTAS

Homo sapiens = species: Homo sapiens; assay: Inhibition of TAK1 (unknown origin) at 10 uM relative to control
Mus musculus [4] = assay: (§1) Anti-inflammatory activity in C57BL/6 mouse model of LPS-induced ALI assessed as inhibition of TNF-alpha level in BALF at 20 mg/kg, po measured after 6 hrs with administered on every 12 hrs followed by LPS treatment after 30 mins post-compound treatment by ELISA; assay type: functional, organism-based; details: time 6.5 hrs
Mus musculus [5] = assay: Anti-inflammatory activity in C57BL/6 mouse model of LPS-induced ALI assessed as inhibition of IL-6 level in serum at 20 mg/kg, po measured after 6 hrs with administered on every 12 hrs followed by LPS treatment after 30 mins post-compound treatment by ELISA; assay type: functional, organism-based; details: time 6.5 hrs
Mus musculus [6] = assay: as §1, with “decrease in thickening” for “inhibition”, “alveolar septa” for “TNF-alpha level”, “lung tissue” for “BALF”, “H and E/IHC staining based analysis” for “ELISA”; assay type: functional, organism-based; details: time 6.5 hrs
Mus musculus [7] = assay: as §1, with “decrease in thickening” for “inhibition”, “interstitial edema” for “TNF-alpha level”, “lung tissue” for “BALF”, “H and E/IHC staining based analysis” for “ELISA”; assay type: functional, organism-based; details: time 6.5 hrs
Mus musculus [8] = assay: Anti-inflammatory activity in C57BL/6 mouse model of DSS-induced ulcerative colitis assessed as decrease in spleen weight at 20 to 40 mg/kg, po administered for 8 days; assay type: functional, organism-based; details: dose 20-40 mg/kg, time 8.0 day
Mus musculus [9] = assay: Anti-inflammatory activity in C57BL/6 mouse model of DSS-induced ulcerative colitis assessed as decrease in fusion of white pulp of spleen administered orally for 8 days; assay type: functional, organism-based; details: dose 20-40 mg/kg, route po, time 8.0 day
[10] = Acute toxicity in C57BL/6 mouse assessed as change in body weight change at 100 to 200 mg/kg, po measured for 10 days; assay type: organism-based; details: in vivo, 240 h, dose 100-200 mg/kg, time 10 day
[11] = Acute toxicity in C57BL/6 mouse assessed as change in pathological change in spleen at 100 to 200 mg/kg, po measured for 10 days by H and E staining based analysis; assay type: organism-based; details: in vivo, 240 h, dose 100-200 mg/kg, time 10 day
[12] = Acute toxicity in C57BL/6 mouse assessed as change in pathological change in kidney at 100 to 200 mg/kg, po measured for 10 days by H and E staining based analysis; assay type: organism-based; details: in vivo, 240 h, dose 100-200 mg/kg, time 10 day
[13] = Tmax in Sprague-Dawley rat at 1 mg/kg, iv measured for 24 hrs; assay type: ADME, organism-based; details: in vivo
[14] = AUC (0 to t) in Sprague-Dawley rat at 10 mg/kg, po measured for 24 hrs; assay type: ADME, organism-based; details: in vivo
[15] = Cmax in Sprague-Dawley rat at 10 mg/kg, po measured for 24 hrs; assay type: ADME, organism-based; details: in vivo
RAW264.7 [16] = assay: cells; details: Mus musculus
Description: Anti-inflammatory activity in mouse RAW264.7 cells assessed as inhibition of LPS-induced IL-6 level preincubated for 30 mins followed by LPS addition measured after 24 hrs by ELISA

THP-1 [17] = assay: cells; details: Homo sapiens
Description: Anti-inflammatory activity in human THP-1 cells assessed as inhibition of LPS-induced IL-6 level preincubated for 30 mins followed by LPS addition measured after 24 hrs by ELISA

THP-1 [18] = assay: cells; details: Homo sapiens; remark: listed apart in the source
Description: Anti-inflammatory activity in human THP-1 cells assessed as inhibition of LPS-induced TNF-alpha level preincubated for 30 mins followed by LPS addition measured after 24 hrs by ELISA

## COc1cc2c(O[C@H]3CC[C@@H](N)CC3)ncnc2cc1OCc1cccc(Br)c1
RAW264.7 [1]
  inhibition: Dose-dependent-effect
RAW264.7 [2]
  inhibition: Dose-dependent-effect
[3]
  inhibition: 100%
Homo sapiens
  inhibition: 4.42%
Mus musculus [4]
  inhibition: Active
Mus musculus [5]
  inhibition: Active
Mus musculus [6]
  Activity: Active
Mus musculus [7]
  Activity: Active
Mus musculus [8]
  Activity: Active; Activity Was Comparable To 5-Asa
Mus musculus [9]
  Activity: Dose-dependent-effect
[10]
  Activity: Non-toxic
[11]
  Activity: Non-toxic
[12]
  Activity: Non-toxic
[13]
  Tmax: 4.8 min
[14]
  AUC(0-t) at 24 h: 4270 ng·h/mL
[15]
  Cmax: 856 ng/mL
RAW264.7 [16]
  IC50: 480 nM
THP-1 [17]
  IC50: 960 nM
THP-1 [18]
  IC50: 5030 nM
